Laboratory results published in patent publication US20240182513A1, “SEPARATION OF METAL IONS FROM A SAMPLE USING GLYCOLIPIDS” (ARIZONA BOARD OF REGENTS ON BEHALF OF THE UNIVERSITY OF …, priority 2021, published 2024).

How the values were obtained:
[1] = Example 2.1 rhamnolipid precipitation, filtration, centrifugation: lanthanum; conditions: for Treatment 2: Rhamnolipid and Filtration Cf / Treatment 3: Rhamnolipid and Centrifugation Cc / Treatment 1: Rhamnolipid Only Cr: lanthanum concentration after treatment; for Treatment 1: Rhamnolipid Only (Rr) efficiency of removal / Treatment 2: Rhamnolipid and Filtration (Rf) efficiency of removal / Treatment 3: Rhamnolipid and Centrifugation (Rc) efficiency of removal: lanthanum
Method: (§1) Structural variants of synthetic glycolipids were used to show the effect of the number and length of the hydrophobic tail(s) on rhamnolipid as a chemical precipitant. […] Solutions (10 mM) were made using nanopure water (≥18 MΩ-cm) then adjusted to a pH of 6.9±0.05 with HNO3 and NaOH. These solutions were made in advance and stored in the cold room for up to one month. They were brought to room temperature before each experiment.
(§2) Three metals were tested for binding with rhamnolipid. Lead as […] (Fisher Scientific, Waltham, MA, 99% purity), was chosen to represent a metal with high rhamnolipid-metal conditional stability constant; lanthanum as La(NO3)3 6(H2O) (Sigma-Aldrich, St. Louis, MO, 99.99% purity) was chosen as a representative REE; and magnesium as Mg(NO3)2 6(H2O) (Sigma-Aldrich, St. Louis, MO, 99% purity) was chosen to represent a metal with a low rhamnolipid-metal conditional stability constant (Hogan et al., 2017). Metal solutions (5 mM) were made using nanopure water (≥18 MΩ-cm) in 20 ml glass scintillation vials. All solutions were used within 15 min to ensure minimal adsorption to the glass vial.
(§3) Three glycolipid-based treatments were evaluated to remove metal from solution: (1) the addition of glycolipid with no further treatment (gravitational precipitation), (2) the addition of a glycolipid followed by filtration or (3) the addition of a glycolipid followed by centrifugation. Each metal (Pb, La, and Mg) was evaluated separately with each of the glycolipid structures. For each experiment, a metal solution was mixed with a glycolipid solution in a 1.7 ml reaction tube at varying molar ratios of glycolipid to metal: 0:1 (glycolipid-free control), 2:1, 5:1, and 10:1. The reactions were mixed in the order of nanopure water (≥18 MΩ-cm), glycolipid solution (10 mM), then metal solution (5 mM). The metal and glycolipid solutions were continuously stirred as they were aliquoted into the reaction tubes. The experiment was performed in triplicate.
(§4) The reaction tubes were mixed overnight (16 to 24 h) and then three samples were collected from each tube to measure the effect of each of the three treatments: a glycolipid only treatment sample, a filtration treatment sample, and a centrifugation treatment sample. Briefly, for the glycolipid only treatment samples all tubes were vortexed for approximately 5 sec immediately before removing 0.1 ml into a dilution tube of 2% trace metal grade nitric acid (12 to 14 ml) to minimize the settling of particles. For the filtration samples each reaction tube was vortexed for 5 sec and then a 0.6 ml aliquot was collected with a 1 ml syringe. A GHP acrodisc disk filter (hydrophilic polypropylene membrane, 0.45 μm pore size, 25 mm disc diameter) from Pall Life Sciences (Port Washington, New York) was then placed onto the end of the syringe and the solution was pushed through the filter. The void space in the disk filter holds approximately 0.5 ml, therefore around 0.1 ml of filtrate was collected into a dilution tube. For the centrifugation sample, the remaining solution was centrifuged at 10,000 RCF for 15 min. Approximately 0.1 ml of the supernatant was aliquoted into a dilution tube. Following collection, all samples were taken for metal analysis using ICP-MS.

[2] = Example 2.1 rhamnolipid precipitation, filtration, centrifugation: magnesium; conditions: for Treatment 2: Rhamnolipid and Filtration Cf / Treatment 3: Rhamnolipid and Centrifugation Cc / Treatment 1: Rhamnolipid Only Cr: magnesium concentration after treatment
Method: as §1, §2, §3, §4

## CCCCCCCCCC(CC(=O)O)OC(=O)CC(CCCCCCCCC)OC1O[C@@H](C)[C@H](O)[C@@H](O)[C@H]1O (stereo partly drawn) [Rha C12C12, rhamnosyl-β-hydroxydodecanoyl-62-hydroxydodecanoate]
[1]; molar ratio 2 to 1
  Treatment 2: Rhamnolipid and Filtration Cf: 0.119 ± 0.007 mmol/L
  Treatment 3: Rhamnolipid and Centrifugation Cc: 0.164 ± 0.013 mmol/L
  Treatment 1: Rhamnolipid Only (Rr) efficiency of removal: (31.5%)
  Treatment 2: Rhamnolipid and Filtration (Rf) efficiency of removal: (55.7%)
  Treatment 3: Rhamnolipid and Centrifugation (Rc) efficiency of removal: (38.7%)
[1]; molar ratio 5 to 1
  Treatment 1: Rhamnolipid Only Cr: 0.197 ± 0.006 mmol/L
  Treatment 2: Rhamnolipid and Filtration Cf: 0.044 ± 0.009 mmol/L
  Treatment 3: Rhamnolipid and Centrifugation Cc: 0.074 ± 0.003 mmol/L
  Treatment 1: Rhamnolipid Only (Rr) efficiency of removal: (26.4%)
  Treatment 2: Rhamnolipid and Filtration (Rf) efficiency of removal: (83.7%)
  Treatment 3: Rhamnolipid and Centrifugation (Rc) efficiency of removal: (72.4%)
[1]; molar ratio 10 to 1
  Treatment 1: Rhamnolipid Only Cr: 0.263 ± 0.007 mmol/L
  Treatment 2: Rhamnolipid and Filtration Cf: 0.035 ± 0.001 mmol/L
  Treatment 3: Rhamnolipid and Centrifugation Cc: 0.057 ± 0.004 mmol/L
  Treatment 1: Rhamnolipid Only (Rr) efficiency of removal: (2.0%)
  Treatment 2: Rhamnolipid and Filtration (Rf) efficiency of removal: (86.9%)
  Treatment 3: Rhamnolipid and Centrifugation (Rc) efficiency of removal: (78.7%)
[1]; molar ratio rhamnolipid:lanthanum 2 to 1
  Treatment 1: Rhamnolipid Only Cr: 0.184 ± 0.014 mmol/L
[2]; molar ratio 2 to 1
  Treatment 2: Rhamnolipid and Filtration Cf: 0.182 ± 0.055 mmol/L
  Treatment 3: Rhamnolipid and Centrifugation Cc: 0.276 ± 0.005 mmol/L
[2]; molar ratio 5 to 1
  Treatment 1: Rhamnolipid Only Cr: 0.285 ± 0.005 mmol/L
  Treatment 2: Rhamnolipid and Filtration Cf: 0.135 ± 0.074 mmol/L
  Treatment 3: Rhamnolipid and Centrifugation Cc: 0.273 ± 0.014 mmol/L
[2]; molar ratio 10 to 1
  Treatment 1: Rhamnolipid Only Cr: 0.285 ± 0.012 mmol/L
  Treatment 2: Rhamnolipid and Filtration Cf: 0.008 ± 0.004 mmol/L
  Treatment 3: Rhamnolipid and Centrifugation Cc: 0.266 ± 0.012 mmol/L
[2]; molar ratio rhamnolipid:magnesium 2 to 1
  Treatment 1: Rhamnolipid Only Cr: 0.281 ± 0.002 mmol/L
[2]; magnesium, molar ratio 2 to 1
  Treatment 2: Rhamnolipid and Filtration (Rf) efficiency of removal: (32.1%)
[2]; magnesium, molar ratio 5 to 1
  Treatment 2: Rhamnolipid and Filtration (Rf) efficiency of removal: (49.4%)
[2]; magnesium, molar ratio 10 to 1
  Treatment 2: Rhamnolipid and Filtration (Rf) efficiency of removal: (97.1%)
  Treatment 3: Rhamnolipid and Centrifugation (Rc) efficiency of removal: (0.4%)
